Laboratory results as given in patent US10328092B2, “Methods and compositions for treatment of drug addiction” (The Royal Institution for the Advancement of Learning / …, priority 2015, dated 2019).

Experiments:
D1-MSNs in the NAc core = experiment: AMPA/NMDA ratio on D1-MSNs after in vivo treatment; set-up: species or system mouse
Protocol: Repeated non-contingent administration of cocaine results in lower AMPA/NMDA ratios of excitatory inputs onto the NAc specifically on the D1-MSN subtype (Kim et al., 2011; Pascoli et al., 2012). To test whether the decrease in AMPA/NMDA ratios after repeated drug administration is due to the increase in TNFα expression, the AMPA/NMDA ratio was evaluated on D1 and D2 MSNs in the NAc core following cocaine or saline administration in WT and TNFα^−/− mice. […] This is consistent with the exocytosis of AMPARs observed with direct stimulation of D1Rs on MSNs (Mangiavacchi and Wolf, 2004). […] To test the hypothesis that potentiated D1-MSNs are more sensitive to TNFα, TNFα mice were treated with a single injection of cocaine and the effect of a low level of TNFα (10 ng/ml) on AMPA/NMDA ratios was evaluated. […] This treatment had no effect on D2-MSNs (FIG. 9B). To test whether cocaine-induced TNFα signaling would occlude further TNFα synaptic depression, wildtype animals were treated with cocaine for 5 days, and then treated striatel slices ex-vivo with TNFα (100 ng/ml). The AMPA/NMDA ratio on D1-MSNs (already reduced compared to saline treated animals; FIG. 5E) was not further reduced by treatment with TNFα (FIG. 5G).
Because depotentiation of MSNs reduced cocaine-induced behavioural sensitization (Pascoli et al., 2012), it was tested whether re-activation of microglia would depress NAc synapses and suppress sensitization. To do this, monophosphoryl lipid A (MPLA), a detoxified variant of LPS, was used (Casella and Mitchell, 2008). MPLA acts as a weak TLR4 agonist that is at least 100-fold less pyrogenic than LPS (Cluff, 2010) and is used in humans as an adjuvant for several vaccine formulations. […] It was verified that MPLA activates microglia in the striatum, by injecting 10 μg MPLA IP after 10 days withdrawal from cocaine. […] This is consistent with previous observations that MPLA acts as a microglia modulator (Michaud et al., 2013). […] It was next tested if MPLA treatment would depress synaptic strength in the NAc core. After 10 days of withdrawal, animals were injected with MPLA and evaluated 24 hours later for AMPA/NMDA ratios on D1-MSNs.
240 μm thick coronal slices containing the nucleus accumbens were prepared from brains of 8-9 week-old mice (with fluorescent D1-MSNs). After a 1 h recovery period, slices were placed in a submersion-type recording chamber and perfused (1.5-2 ml/min) at 30° C. with a bicarbonate-buffered artificial CSF saturated with 95% O2/5% CO2 and containing (in mM): 119 NaCl, 2.5 KCl, 1 NaH2PO4, 1.3 MgCl2, 2.5 CaCl2, 26.2 NaHCO3, 11 glucose, and 0.05 picrotoxin. Whole-cell voltage-clamp recordings from medium spiny neurons in the nucleus accumbens core were obtained under visual control using infrared-differential interference contrast microscopy. Whole-cell electrodes (2-4 MΩ) were filled with internal solution containing the following (in mM): 120 CsMeSO3, 15 CsCl, 8 NaCl, 0.2 EGTA, 10 HEPES, 2 Mg-ATP, 0.3 Na-GTP, 10 tetraethylammonium, and 5 QX-314 [5-N-(2,6-dimethylphenylcarbamoylmethyl)triethylammonium bromide] (308-310 mOsm). pH was adjusted to 7.3 with CsOH. Cells with series resistance above 25 MΩ or a 20% change over time were excluded. Synaptic currents were evoked using stainless-steel bipolar stimulating electrodes placed 100-150 μm rostral to the recorded neurons. EPSCs were acquired with an Axopatch 200B (Molecular Devices), filtered at 2 kHz, and digitized at 10 kHz. Acquisition and analysis was performed using pCLAMP 10.2 (Molecular Devices). To calculate AMPA/NMDA ratios, evoked synaptic responses were collected at −70 mV to measure AMPAR-mediated EPSCs and at +40 mV to measure NMDAR-mediated EPSCs. Typically, 20 responses were averaged to generate an average response. The peak AMPA response was used to calculate the AMPAR component and the amplitude at 40 ms post the AMPAR peak response was used to calculate the slower NMDA component at +40 mV to calculate the AMPA/NMDA ratio.

mice = experiment: Cocaine-induced behavioural sensitization, locomotor response; type: in vivo, mouse
Protocol: A cocaine induced behavioral sensitization animal model of drug addiction was used. Sensitization refers to the augmentation of behavioral responses to drugs of abuse that occurs during their repeated administration and persists long after drug exposure is discontinued. In this paradigm mice are injected with 15 mg/kg cocaine and put in an open field box and measure the cocaine stimulatory effects on locomotor for 15 min. After the first run mice are injected with 10 ug of MPL and returned to their home cage.
The response of mice to repeated doses of cocaine was compared. After habituating animals to handling, the animals receive an IP injection and have their locomotor activity monitored in open-field chambers using Ethovision software for 15 min. After two days of saline injections, mice received five daily injections of cocaine (15 mg/kg) and assayed for locomotion. Following 7-10 days without injections (withdrawal), mice receive a challenge dose of cocaine (also 15 mg/kg) and locomotor activity again assessed (see Examples 1 and 2). A minimum of three separate cohorts have been run.
Locomotion was monitored in 30×30 cm plexiglass boxes by the EthoVision video-tracking system (Noldus) and performed near the end of the light phase of the light-dark cycle under dim red light. After habituating animals to handling, mice received IP injections of saline or cocaine and their activity was recorded for 15 min. Mice were tested during habituation to injection and the activity boxes (saline; days 1-2) and 5 repeated cocaine injections (15 mg/kg; days 3-7). Following 10 days without injections (withdrawal), mice receive a challenge dose of cocaine (15 mg/kg) and locomotor activity again assessed (day 17). Total distance traveled and stereotypy were evaluated from video by EthoVision. For stereotypy, the frequency of which the mouse stops moving (#pauses/min) was measured using a threshold start velocity of 2.00/second and a threshold stop velocity of 0 cm/s. The number of turns per minute (# turns/min) was measured by calculating the frequency for which the path of the mouse turns over a minimum distance of 3.00 cm. Velocity was assessed as the mean distance traveled (cm) over time (s).
Mice were treated for […] with saline (1,2), then 5 consecutive days with 15 mg/kg cocaine (3-7). Animals then underwent a 9 day withdrawal period from cocaine. On day 9, they received an injection of saline or 50 μg/kg of LPS. 24 hours later, the mice were retested for the locomotor response in terms of distance (cm) traveled in 15 minutes.

| Molecule | mean AMPA/NMDA ratio, D1 (D1-MSNs in the NAc core; TNFα−/− mice, 1 day cocaine 15 mg/kg) | mean AMPA/NMDA ratio, D1 (D1-MSNs in the NAc core; TNFα−/− mice, 5 days cocaine 15 mg/kg) | mean AMPA/NMDA ratio, D1 (D1-MSNs in the NAc core; WT mice, 1 day cocaine 15 mg/kg) | mean AMPA/NMDA ratio, D1 (D1-MSNs in the NAc core; WT mice, 5 days cocaine 15 mg/kg) | AMPA/NMDA ratio in D1-MSNs vs saline treated controls (D1-MSNs in the NAc core; MPLA 10 μg, 24 hours after injection, after 10 days withdrawal from cocaine) | initial response to cocaine challenge dose (mice; 7 daily saline injections, 9 days abstinence, MPLA 10 μg, cocaine 15 mg/kg next day) | locomotor response to a challenge dose of cocaine (mice; TNFα−/− mice, MPLA 10 μg) | behavioral sensitization to cocaine (mice; TNFα−/− mice, MPLA 10 ug IP after first cocaine 15 mg/kg, re-tested one day later) | behavioral response to cocaine (mice; WT mice, 10 days withdrawal, single MPLA 10 μg, tested 4 days later) | behavioral (locomotor) response to cocaine challenge (mice; wildtype mice after withdrawal, MPLA 10 μg or 50 μg, tested 24 hours later, cocaine 15 mg/kg) | behavioral sensitization to cocaine vs saline treated mice (mice; wildtype mice, MPLA 10 ug IP after first cocaine 15 mg/kg, re-tested 24 hours later) |
| --- | --- | --- | --- | --- | --- | --- | --- | --- | --- | --- | --- |
| COC(=O)[C@H]1[C@@H](OC(=O)c2ccccc2)C[C@@H]2CC[C@H]1N2C [cocaine] | 4.28±0.35 | 4.97±083 | 3.38±0.57 | 2.73±0.35 | – | – | – | – | – | – | – |
| monophosphoryl lipid A [MPLA] | – | – | – | – | significantly reduced | did not alter | did not reduce | no effect | did not reduce | dose dependently reduced | reduced |
